Laboratory results from patent publication US9861625B2, “Methods and compositions for treating cancer through inhibition of PI3K” (Duke University, priority 2014, dated 2018).
Where two headings read alike, the source gives them in different places.

Legend:
Experiment in all cases: MTT cell viability assay
Format in all cases: cell-based
LY19 = settings: LY19, GCB DLBCL, OCI
Description: (§1) A total of 60 cell lines representative of different cancer types were obtained from the ATCC and grown and maintained in accordance with the provided guidelines. The cell lines represented the following distinct histologies: mantle cell lymphoma (5 lines: JVM13, Rec1, Mino, JVM2, Jeko); germinal center B-cell derived (“GCB”) DLBCL (19 lines: Farage, BJAB, Ly1, Ly2, Ly7, Ly8, Ly19, HBL2, HT, Karpas422, Pfeiffer, RCK8, RL, Sci-1, Ski, SUDHL4, SUDHL7, Toledo, WSU-NHL); primary mediastinal B-cell lymphoma (“PMBL”) (3 lines: K1106, MEDB1, U2940); Burkitt lymphoma (11 lines: Daudi, CA46, EB1, EB2, EB3, Jijoye, Raji, Ramos, Namwala, BL2, BL41); Hodgkin lymphoma (3 lines: RMPI6666, L1236, L428); activated B-cell derived (“ABC”) DLBCL (6 lines: Ly3, HBL1, TMD8, Ly10, Riva, U2932); multiple myeloma (6 lines: U266, SKMM1, RPMI8226, KMS12, IM9, H929); acute myelogenous leukemia (“AML”) (2 lines: U937, KG1); acute lymphoblastic leukemia (“ALL”) (2 lines: Reh, SR); and T-cell lymphoma (3 lines: Molt4, RPMI8402, Jurkat). The cell lines were tested within six months after resuscitation.
(§2) The 3-(4,5-dimethylthiazol-2-yl)-2,5-diphenyltetrazolium bromide (MTT) cell viability assay was used to determine cell viability in response to drug treatment. Five replicates per concentration tested were carried out in serial dilutions with a total of ten concentrations with a 50% reduction in drug concentration per dilution for each plate. A total of 15 μl of MTT reagent was added to each drug-treated well and incubated for three hours in 37° C. Detergent was added to each drug-treated well and incubated overnight at room temperature without exposure to light. Absorbance was measured at 570 nm using a plate reader from Tecan Group. The IC50 concentration was determined using the publicly available ED50 plus v1.0 software program.

Mino = settings: Homo sapiens, MantleCellLymphoma, RPMI 10% FBS
Description: as §1, §2

H929 = settings: Homo sapiens, NCI-H929; H929, Multiple Myeloma, RPMI 10% FBS
Description: as §1, §2

CA46 = settings: Homo sapiens; CA46, Burkitt Lymphoma, RPMI 10% FBS
Description: as §1, §2

EB2 = settings: Homo sapiens; EB2, Burkitt Lymphoma, RPMI 10% FBS
Description: as §1, §2

Raji = settings: Homo sapiens, Burkitt Lymphoma, RPMI 10% FBS
Description: as §1, §2

IM9 = settings: Homo sapiens, IM-9; IM9, Multiple Myeloma, RPMI 10% FBS
Description: as §1, §2

Sci-1 = settings: Sci-1, GCB DLBCL, RPMI 10% FBS
Description: as §1, §2

Farage = settings: GCB DLBCL, RPMI 10% FBS
Description: as §1, §2

Reh = settings: Homo sapiens, ALL, RPMI 10% FBS
Description: as §1, §2

K1106 = settings: K1106, PMBL, RPMI 15% FBS
Description: as §1, §2

MEDB1 = settings: MEDB1, PMBL, RPMI 10% FBS
Description: as §1, §2

Jijoye = settings: Burkitt Lymphoma, RPMI 10% FBS
Description: as §1, §2

RL = settings: Homo sapiens, GCB DLBCL, RPMI 10% FBS
Description: as §1, §2

BJAB = settings: Homo sapiens
Description: as §1, §2

Pfeiffer = settings: Homo sapiens, GCB DLBCL, RPMI 10% FBS
Description: as §1, §2

L1236 = settings: L-1236; L1236, Hodgkin Lymphoma, RPMI 10% FBS
Description: as §1, §2

Karpas422 = settings: Homo sapiens, KARPAS-422; Karpas422, GCB DLBCL, RPMI 10% FBS
Description: as §1, §2

KG1 = settings: Homo sapiens, KG-1; KG1, AML, IMDM 20% FBS
Description: as §1, §2

EB3 = settings: Homo sapiens, EB-3; EB3, Burkitt Lymphoma, RPMI 10% FBS
Description: as §1, §2

RCK8 = settings: Homo sapiens; RCK8, GCB DLBCL, RPMI 15% FBS
Description: as §1, §2

EB1 = settings: EB1, Burkitt Lymphoma, RPMI 10% FBS
Description: as §1, §2

LY7 = settings: LY7, GCB DLBCL, OCI
Description: as §1, §2

Jeko = settings: MantleCellLymphoma, RPMI 10% FBS
Description: as §1, §2

LY3 = settings: LY3, ABC DLBCL, OCI
Description: as §1, §2

Molt 4 = settings: Homo sapiens; Molt 4, T-cell, RPMI 10% FBS
Description: as §1, §2

SUDHL4 = settings: Homo sapiens, SU-DHL-4; SUDHL4, GCB DLBCL, RPMI 15% FBS
Description: as §1, §2

TMD8 = settings: Homo sapiens; TMD8, ABC DLBCL, MEM-α 10% FBS
Description: as §1, §2

Daudi = settings: Homo sapiens, Burkitt Lymphoma, RPMI 10% FBS
Description: as §1, §2

[1] = BJAB, GCB DLBCL, RPMI 10% FBS, read-out: IC50

Row | Compound | IC50 (LY19) [µM] | IC50 (Mino) [µM] | IC50 (H929) [µM] | IC50 (CA46) [µM] | IC50 (EB2) [µM] | IC50 (Raji) [µM] | IC50 (IM9) [µM] | IC50 (Sci-1) [µM] | IC50 (Farage) [µM] | IC50 (Reh) [µM] | IC50 (K1106) [µM] | IC50 (MEDB1) [µM] | IC50 (Jijoye) [µM] | IC50 (RL) [µM] | IC50 (BJAB; [1]) [µM] | IC50 (Pfeiffer) [µM] | IC50 (L1236) [µM] | IC50 (Karpas422) [µM] | IC50 (KG1) [µM] | IC50 (EB3) [µM] | further results
1 | Cn1c(=O)n(-c2ccc(C(C)(C)C#N)cc2)c2c3cc(-c4cnc5ccccc5c4)ccc3ncc21 [BEZ235] | 0.224 | 0.0608 | 0.113 | 0.0284 | 0.0702 | 0.3 | 4.5 | 0.035 | 0.509 | 0.484 | 0.536 | 1.83 | 0.14 | 0.026 | 0.0269 | 0.0171 | 0.06 | 0.022 | 0.0799 | 0.0368 | IC50 (BJAB; BJAB cells, read-out: IC50 concentration): 0.0269 µM; IC50 (BJAB; BJAB cells, read-out: observed IC50): 0.0269 µM; IC50 (RCK8): 0.02 µM; IC50 (EB1): 0.0226 µM; IC50 (LY7): 0.257 µM; IC50 (Jeko): 0.051 µM; IC50 (LY3): 0.08 µM; IC50 (Molt 4): 0.168 µM; IC50 (SUDHL4): 0.0608 µM; IC50 (TMD8): 0.118 µM; IC50 (Daudi): 0.0467 µM
2 | Nc1cc(C(F)(F)F)c(-c2cc(N3CCOCC3)nc(N3CCOCC3)n2)cn1 [BKM120] | 1.89 | 0.46 | 1.2 | 0.729 | 1.07 | 2.31 | 0.575 | 0.985 | 0.752 | 1.02 | 1.87 | 7.79 | 2.73 | 2.6 | 1.47 | 1.04 | 1.12 | 2.08 | 0.724 | 0.655 | IC50 (RCK8): 3.26 µM; IC50 (EB1): 1.07 µM; IC50 (LY7): 2.55 µM; IC50 (Jeko): 0.752 µM; IC50 (LY3): 0.893 µM; IC50 (Molt 4): 1.11 µM; IC50 (SUDHL4): 1.11 µM; IC50 (TMD8): 0.765 µM; IC50 (Daudi): 1.3 µM
3 | COc1ccc(-c2ccc3ncc4c(c3c2)n(-c2ccc(N3CCNCC3)c(C(F)(F)F)c2)c(=O)n4C)cn1 [BGT226] | 0.0333 | 0.0105 | 0.0036 | 0.0276 | 0.199 | 0.0798 | 0.201 | 0.0245 | 0.162 | 0.0134 | 0.0182 | 0.0497 | 0.0131 | 0.0641 | 0.0085 | 0.0208 | 0.0124 | 0.0853 | 0.0251 | 0.0445 | IC50 (RCK8): 0.0218 µM; IC50 (EB1): 0.0716 µM; IC50 (LY7): 0.0204 µM; IC50 (Jeko): 0.0166 µM; IC50 (LY3): 0.0204 µM; IC50 (Molt 4): 0.008 µM; IC50 (SUDHL4): 0.0513 µM; IC50 (TMD8): 0.101 µM; IC50 (Daudi): 0.0864 µM
